Results as given in patent US5028726A, “Platinum amine sulfoxide complexes” (The University of Vermont and State Agricultural College, priority 1990, dated 1991).

What was measured:
B16 melanoma = assay: In vivo efficacy, B16 melanoma, compared to cisplatin; parameters: species or system mice; conditions: tumor s.c., drug i.p.
[1] = clinical, compared with parent complex cisplatin; cited from earlier work
L1210 leukemia = assay: In vivo efficacy, L1210 leukemia in mice; parameters: species or system murine (male BDR mice); conditions: days 1, 5 and 9
Experimental: (§1) Male BDR mice weighing 18-20 gm were purchased from the National Cancer Institute and housed in an environment having controlled humidity, temperature and photoperiods. The animals had food and water available ad libitum and wood chip bedding was changed daily. The L1210/0 and P388 murine leukemias were maintained as ascites tumors by weekly intraperitoneal (i.p.) inoculations of 10^6 cells For testing purposes, 10^6 tumor cells were inoculated i.p. (day 0) and mice were administered test compound i.p. on days 1, 5 and 9. Animals were observed daily for signs of toxicity and deaths and the day of death recorded for each animal that died during the 60 day observation period. The efficacy of each dose of compound tested was evaluated by calculating the percent increased life span determined by dividing the mean survival time of treated mice (using the day of death of only those animals that dies during the 60 day period) by the mean survival time of non-treated tumor bearing control animals (% T/C). […] An additional index of antitumor activity is the number of long term survivors defined as treated animals alive at the end of the study. The complexes tested and the results observed are summarized in Table 3 (L1210 leukemia) and in Table 4 (P338 leukemia). The data in Table 5 compares to the in vivo activity of [PtCl(n-Bu2 SO)](damch)NO3 with that of cisplatin.

[2] = test system: L1210/0 murine leukemia cells; assay: In vitro cytotoxicity, DDP-sensitive L1210/0 cells; type: cell-based; conditions: L1210/0, DDP-sensitive; 72 hours; read-out: In Vitro Activity in L1210 Leukemia, L1210/O (ID50)
Experimental: (§2) L1210 murine leukemia cells sensitive to the cytotoxicity of DDP (L1210/0) were cultured as a suspension in McCoy's 5A medium supplemented with 5% donor horse serum and glutamine. L1210 cells, 40-60 fold resistant to DDP (L1210/DDP) or 30-fold resistant to [Pt(R,R-dach)SO4 ] (L1210/dach), were cultured in McCoy's 5A medium supplemented with 10% fetal bovine serum and glutamine. Both cell lines were grown in a humidified atmosphere to 5% CO2 : 95% air at 37° C. For testing purposes, cells were diluted to 5×10^4 cells/ml and 1 ml of cell suspension aliquoted to disposable tissue culture tubes. Test compound was then added to the appropriate tubes (40 μl/tube) to attain final concentrations of 0.01, 0.1, 1.0 and 10 μg/ml. After 72 hours, the cell concentrations of all tubes were determined using a Coulter counter. The percent growth inhibition for each drug concentration was then calculated and the ID 50 (concentration of drug required to inhibit cell growth by 50%) was derived. The resistance factor for each compound was obtained by dividing the ID50 (L1210/DDP) by the ID50 (L1210/0).
(§3) In Vitro Activity (μM) of [PtCl(R2 SO)(damch)]NO3 in L1210

L1210/DDP cells = assay: In vitro cytotoxicity, DDP-resistant L1210/DDP cells; type: cell-based, murine; conditions: for Resistance Factor (R), L1210/DDP: ID50 (L1210/DDP) divided by ID50 (L1210/0), 4320 min; for IC50: L1210/DDP, 40-60 fold resistant to DDP, 72 hours, read-out: In Vitro Activity in L1210 Leukemia, L1210/DDP (ID50)
Experimental: as §2, §3
(§4) ^a R = Resistance Factor which is defined as ID50 (Sensitive or […]

P388 leukemia = assay: In vivo efficacy, P388 leukemia in mice; parameters: species or system murine (male BDR mice); conditions: days 1, 5 and 9
Experimental: as §1

L1210/dach cells = assay: In vitro cytotoxicity, [Pt(R,R-dach)SO4]-resistant L1210/dach cells; type: cell-based, murine
Experimental: as §2, §3, §4

[3] = dose 3 × 12.5, complex in saline

Compound: N.N.[Cl][Pt][Cl] [Cisplatin, cis-[PtCl2 (NH3)2], reference compound]
- % T/C, B16 melanoma (B16 melanoma; dose 3 × 5): 170%

Compound: N.N.O=C([O-])C1(C(=O)[O-])CCC1.[Pt+2] [carboplatin, [Pt(NH3)2 (CBDCA)]]
- nephrotoxicity [1]: reduction in the severe nephrotoxicity of the parent complex

Compound: [PtCl(R2 SO)(damch)]NO3, R = Me [reference compound]
- % T/C, L1210 leukemia (L1210 leukemia; 3 × 100 mg/kg i.p.): 152%
- IC50 [2]: 1090 nM
- Resistance Factor (R), L1210/DDP (L1210/DDP cells): 3.58
- IC50 (L1210/DDP cells): 3900 nM

Compound: [PtCl(R2 SO)(damch)]NO3, R = n-Pr
- % T/C, L1210 leukemia (L1210 leukemia; 3 × 12.5 mg/kg i.p.): 162%
- % T/C, L1210 leukemia (L1210 leukemia; 3 × 25 mg/kg i.p.): 185%
- IC50 [2]: 620 nM
- Resistance Factor (R), L1210/DDP (L1210/DDP cells): 4.70
- IC50 (L1210/DDP cells): 2920 nM

Compound: [PtCl(damch)(n-Bu2 SO)]^+ NO3 ^-
- % T/C, L1210 leukemia (L1210 leukemia; 3 × 25 mg/kg (D5W) i.p.): 260%
- % T/C, B16 melanoma (B16 melanoma; dose 3 × 6.25, complex in saline): 154%
- % T/C, B16 melanoma (B16 melanoma; [3]): 136%
- figure in parentheses after % T/C (presumably long term survivors), B16 melanoma (B16 melanoma; [3]): 1/6
- % T/C, B16 melanoma (B16 melanoma; dose 3 × 25, complex in saline): 188%
- % T/C, P388 leukemia (P388 leukemia; dose 3 × 6.25, i.p.): 167%
- % T/C, P388 leukemia (P388 leukemia; dose 3 × 12.5, i.p.): 146%
- % T/C, P388 leukemia (P388 leukemia; dose 3 × 25 (D5W), i.p.): 195%
- % T/C, P388 leukemia (P388 leukemia; dose 3 × 25, i.p.): 189%
- IC50 (L1210/dach cells; L1210/dach, 30-fold resistant to [Pt(R,R-dach)SO4], 72 hours, read-out: In Vitro Activity in L1210 Leukemia, L1210/dach (ID50)): 5360 nM
- Resistance Factor (R), L1210/dach (L1210/dach cells; resistance factor for L1210/dach versus L1210/0, 4320 min): 41.23
- IC50 [2]: 390 nM
- Resistance Factor (R), L1210/DDP (L1210/DDP cells): 6.05
- IC50 (L1210/DDP cells): 2360 nM
